Patent US20210052473A1, “COMPOSITION FOR REMOVING ALDEHYDE-BASED ODORS AND REACTIVE OXYGEN SPECIES” (Osteon Co. Ltd., priority 2019, published 2021)

Experiment: Deodorization performance: anisidine value (p-AV) by ultraviolet spectrometry after reaction with 0.2% 2-nonenal isooctane standard solution
Conditions: 20 ml 0.2% 2-nonenal isooctane solution (v/v) stirred 30 minutes with 20 ml composition; lower value = less aldehyde; Table 5
Experimental: At this time, 0.2% 2-nonenal isooctane solution (v/v) was used as a standard solution to determine the deodorizing performance. 2-Nonenal is a typical aldehyde compound generated by the oxidation of unsaturated fatty acids in human skin. […] The deodorizing performance of the deodorizing substances was determined by measuring the anisidine values (p-AV).

Row | SMILES | Anisidine value (p-AV)
1 | Cc1c[nH]c(=O)[nH]c1=O [Comparative Example 14, Thymine] | 36.54
2 | O=S([O-])O.[Li+] [Comparative Example 3, Lithium bisulfite] | 34.65
3 | O=S([O-])S(=O)[O-].[Na+].[Na+] [Comparative Example 8, Sodium hydrosulfite] | 34.39
4 | O=S([O-])O.[K+] [Comparative Example 2, Potassium bisulfite] | 33.23
5 | O=S([O-])S(=O)(=O)[O-].[Na+].[Na+] [Comparative Example 6, Sodium metabisulfite] | 35.36
6 | Nc1nc2nc[nH]c2c(=O)[nH]1 [Comparative Example 16, Guanine] | 38.45
7 | O=S([O-])S(=O)[O-].[K+].[K+] [Comparative Example 9, Potassium hydrosulfite] | 34.10
8 | N[C@@H](Cc1c[nH]cn1)C(=O)O [Comparative Example 19, Histidine] | 38.09
9 | O=S([O-])S(=O)(=O)[O-].[Li+].[Li+] [Comparative Example 7, Lithium metabisulfite] | 34.27
10 | O=S([O-])S(=O)[O-].[Li+].[Li+] [Comparative Example 10, Lithium hydrosulfite] | 33.98
11 | O=S([O-])S(=O)(=O)[O-].[K+].[K+] [Comparative Example 5, Potassium metabisulfite] | 33.10
12 | Nc1ccnc(=O)[nH]1 [Comparative Example 13, Cytosine] | 37.21
13 | Nc1ncnc2nc[nH]c12 [Comparative Example 15, Adenine] | 36.23
14 | NCCCC[C@H](N)C(=O)O [Comparative Example 17, Lysine] | 34.56
15 | O=S([O-])O.[Na+] [Comparative Example 1, Sodium bisulfite] | 33.28
16 | O=S([O-])S(=O)(=O)[O-].[Na+].[Na+] [Comparative Example 4, Sodium metabisulfite] | 34.48
17 | N=C(N)NCCC[C@H](N)C(=O)O [Comparative Example 18, Arginine] | 38.41
